Reference: ChEMBL document CHEMBL5724914, “Linking interpersonal differences in gut microbiota composition and drug biotransformation activity” (2024)

Conditions: human gut metagenome, 24 h, 2 µM
Note: call rule not given here.

Row | Bacterial Biotransformation | Structure (SMILES)
1 | Compound NOT metabolized | COc1ccccc1OCC(O)CN1CCN(CC(=O)Nc2c(C)cccc2C)CC1 (stereo not given) [RANOLAZINE]
2 | Compound metabolized | Nc1ccc(/N=N/c2ccccc2)c(N)n1 [PHENAZOPYRIDINE]

Conditions: human gut metagenome, 24 h, 2 µM
Remark: another data set of the same source

Row | Bacterial Biotransformation | Structure (SMILES)
3 | Compound NOT metabolized | COc1ccccc1OCC(O)CN1CCN(CC(=O)Nc2c(C)cccc2C)CC1 (stereo not given) [RANOLAZINE]
4 | Compound metabolized | Nc1ccc(/N=N/c2ccccc2)c(N)n1 [PHENAZOPYRIDINE]

Test: (§1) The drug is tested on Z-022 corresponding to mouse gut metagenome with ENA study accession number: PRJEB37062 and ENA sample accession number: ERS12561821 for biotransformation under anaerobic condition. The drug concentrations were measured over 9 timepoints collected between 0 and 24 hours of incubation by liquid-chromatography-coupled mass spectrometry (LC–MS)
Conditions: 2 µM

Row | Bacterial Biotransformation | Structure (SMILES)
5 | Compound metabolized | COc1ccccc1OCC(O)CN1CCN(CC(=O)Nc2c(C)cccc2C)CC1 (stereo not given) [RANOLAZINE]
6 | Compound metabolized | Nc1ccc(/N=N/c2ccccc2)c(N)n1 [PHENAZOPYRIDINE]

Conditions: human gut metagenome, 24 h, 2 µM
Remark: another data set of the same source

Row | Bacterial Biotransformation | Structure (SMILES)
7 | Compound NOT metabolized | COc1ccccc1OCC(O)CN1CCN(CC(=O)Nc2c(C)cccc2C)CC1 (stereo not given) [RANOLAZINE]
8 | Compound metabolized | Nc1ccc(/N=N/c2ccccc2)c(N)n1 [PHENAZOPYRIDINE]

Conditions: human gut metagenome, 24 h, 2 µM
Remark: another data set of the same source

Row | Bacterial Biotransformation | Structure (SMILES)
9 | Compound NOT metabolized | COc1ccccc1OCC(O)CN1CCN(CC(=O)Nc2c(C)cccc2C)CC1 (stereo not given) [RANOLAZINE]
10 | Compound metabolized | Nc1ccc(/N=N/c2ccccc2)c(N)n1 [PHENAZOPYRIDINE]

Test: as §1, with “WLS-350” for “Z-022”, “human” for “mouse”, “ERS12561789” for “ERS12561821”
Conditions: 2 µM

Row | Bacterial Biotransformation | Structure (SMILES)
11 | Compound NOT metabolized | COc1ccccc1OCC(O)CN1CCN(CC(=O)Nc2c(C)cccc2C)CC1 (stereo not given) [RANOLAZINE]
12 | Compound metabolized | Nc1ccc(/N=N/c2ccccc2)c(N)n1 [PHENAZOPYRIDINE]

Conditions: human gut metagenome, 24 h, 2 µM
Remark: another data set of the same source

Row | Bacterial Biotransformation | Structure (SMILES)
13 | Compound NOT metabolized | COc1ccccc1OCC(O)CN1CCN(CC(=O)Nc2c(C)cccc2C)CC1 (stereo not given) [RANOLAZINE]
14 | Compound metabolized | Nc1ccc(/N=N/c2ccccc2)c(N)n1 [PHENAZOPYRIDINE]

Test: as §1, with “Z-029” for “Z-022”, “rat” for “mouse”, “ERS12561828” for “ERS12561821”
Conditions: 2 µM

Row | Bacterial Biotransformation | Structure (SMILES)
15 | Compound NOT metabolized | COc1ccccc1OCC(O)CN1CCN(CC(=O)Nc2c(C)cccc2C)CC1 (stereo not given) [RANOLAZINE]
16 | Compound metabolized | Nc1ccc(/N=N/c2ccccc2)c(N)n1 [PHENAZOPYRIDINE]

Conditions: human gut metagenome, 24 h, 2 µM
Remark: another data set of the same source

Row | Bacterial Biotransformation | Structure (SMILES)
17 | Compound NOT metabolized | COc1ccccc1OCC(O)CN1CCN(CC(=O)Nc2c(C)cccc2C)CC1 (stereo not given) [RANOLAZINE]
18 | Compound metabolized | Nc1ccc(/N=N/c2ccccc2)c(N)n1 [PHENAZOPYRIDINE]

Conditions: human gut metagenome, 24 h, 2 µM
Remark: another data set of the same source

Row | Bacterial Biotransformation | Structure (SMILES)
19 | Compound NOT metabolized | COc1ccccc1OCC(O)CN1CCN(CC(=O)Nc2c(C)cccc2C)CC1 (stereo not given) [RANOLAZINE]
20 | Compound metabolized | Nc1ccc(/N=N/c2ccccc2)c(N)n1 [PHENAZOPYRIDINE]

Test: as §1, with “Z-017” for “Z-022”, “ERS12561816” for “ERS12561821”
Conditions: 2 µM

Row | Bacterial Biotransformation | Structure (SMILES)
21 | Compound NOT metabolized | COc1ccccc1OCC(O)CN1CCN(CC(=O)Nc2c(C)cccc2C)CC1 (stereo not given) [RANOLAZINE]
22 | Compound metabolized | Nc1ccc(/N=N/c2ccccc2)c(N)n1 [PHENAZOPYRIDINE]

Test: as §1, with “WLS-220” for “Z-022”, “human” for “mouse”, “ERS12561769” for “ERS12561821”
Conditions: 2 µM

Row | Bacterial Biotransformation | Structure (SMILES)
23 | Compound NOT metabolized | COc1ccccc1OCC(O)CN1CCN(CC(=O)Nc2c(C)cccc2C)CC1 (stereo not given) [RANOLAZINE]
24 | Compound metabolized | Nc1ccc(/N=N/c2ccccc2)c(N)n1 [PHENAZOPYRIDINE]

Test: as §1, with “Z-004” for “Z-022”, “to” for “to mouse gut”, “ERS12561804” for “ERS12561821”
Conditions: 2 µM

Row | Bacterial Biotransformation | Structure (SMILES)
25 | Compound NOT metabolized | COc1ccccc1OCC(O)CN1CCN(CC(=O)Nc2c(C)cccc2C)CC1 (stereo not given) [RANOLAZINE]
26 | Compound metabolized | Nc1ccc(/N=N/c2ccccc2)c(N)n1 [PHENAZOPYRIDINE]

Test: as §1, with “Z-005” for “Z-022”, “to” for “to mouse gut”, “ERS12561805” for “ERS12561821”
Conditions: 2 µM

Row | Bacterial Biotransformation | Structure (SMILES)
27 | Compound NOT metabolized | COc1ccccc1OCC(O)CN1CCN(CC(=O)Nc2c(C)cccc2C)CC1 (stereo not given) [RANOLAZINE]
28 | Compound metabolized | Nc1ccc(/N=N/c2ccccc2)c(N)n1 [PHENAZOPYRIDINE]

Test: as §1, with “WLS-069” for “Z-022”, “human” for “mouse”, “ERS12561748” for “ERS12561821”
Conditions: 2 µM

Row | Bacterial Biotransformation | Structure (SMILES)
29 | Compound NOT metabolized | COc1ccccc1OCC(O)CN1CCN(CC(=O)Nc2c(C)cccc2C)CC1 (stereo not given) [RANOLAZINE]
30 | Compound metabolized | Nc1ccc(/N=N/c2ccccc2)c(N)n1 [PHENAZOPYRIDINE]

Test: as §1, with “WLS-052” for “Z-022”, “human” for “mouse”, “ERS12561747” for “ERS12561821”
Conditions: 2 µM

Row | Bacterial Biotransformation | Structure (SMILES)
31 | Compound NOT metabolized | COc1ccccc1OCC(O)CN1CCN(CC(=O)Nc2c(C)cccc2C)CC1 (stereo not given) [RANOLAZINE]
32 | Compound metabolized | Nc1ccc(/N=N/c2ccccc2)c(N)n1 [PHENAZOPYRIDINE]

Test: as §1, with “Z-006” for “Z-022”, “ERS12561806” for “ERS12561821”
Conditions: 2 µM

Row | Bacterial Biotransformation | Structure (SMILES)
33 | Compound NOT metabolized | COc1ccccc1OCC(O)CN1CCN(CC(=O)Nc2c(C)cccc2C)CC1 (stereo not given) [RANOLAZINE]
34 | Compound metabolized | Nc1ccc(/N=N/c2ccccc2)c(N)n1 [PHENAZOPYRIDINE]

Conditions: human gut metagenome, 24 h, 2 µM
Remark: another data set of the same source

Row | Bacterial Biotransformation | Structure (SMILES)
35 | Compound NOT metabolized | COc1ccccc1OCC(O)CN1CCN(CC(=O)Nc2c(C)cccc2C)CC1 (stereo not given) [RANOLAZINE]
36 | Compound metabolized | Nc1ccc(/N=N/c2ccccc2)c(N)n1 [PHENAZOPYRIDINE]

Conditions: human gut metagenome, 24 h, 2 µM
Remark: another data set of the same source

Row | Bacterial Biotransformation | Structure (SMILES)
37 | Compound NOT metabolized | COc1ccccc1OCC(O)CN1CCN(CC(=O)Nc2c(C)cccc2C)CC1 (stereo not given) [RANOLAZINE]
38 | Compound metabolized | Nc1ccc(/N=N/c2ccccc2)c(N)n1 [PHENAZOPYRIDINE]

Conditions: human gut metagenome, 24 h, 2 µM
Remark: another data set of the same source

Row | Bacterial Biotransformation | Structure (SMILES)
39 | Compound NOT metabolized | COc1ccccc1OCC(O)CN1CCN(CC(=O)Nc2c(C)cccc2C)CC1 (stereo not given) [RANOLAZINE]
40 | Compound metabolized | Nc1ccc(/N=N/c2ccccc2)c(N)n1 [PHENAZOPYRIDINE]
